The source of these data is patent publication US20230277553A1, “THERAPEUTIC COMPOSITION OF CURE-PRO COMPOUNDS FOR TARGETED DEGRADATION OF BET DOMAIN PROTEINS, AND METHODS OF MAKING AND USAGE” (CORNELL UNIVERSITY, priority 2020, published 2023).

“Also recorded” adds a separate entry of the source.

The target in test [1] is T1, BRD4 (Homo sapiens, UniProt O60885). In words: Summary of BRD4 degradation by CURE-PRO pairs, estimated from Western Blot or WES (Proteinsimple). It counts as cell-based. The arrangement: endogenous in cells. The settings on record: for Degradation of BRD4 in combination with CRBN ligand [drawing 407]: Table 4, aryl-boronic acid-containing CRBN ligand, first drawing (by text: 8048). An excerpt:
A black check mark indicates efficacy of 30% to 70% or higher protein degradation.

Test [2] concerns the target T1, BRD4. In words: CURE-PRO-mediated BRD4 degradation, Western blot, HeLa cells. It counts as cell-based. Also on record: endogenous in cells; host or cells: HeLa. The settings on record: 24 h, Western blot; for BRD4 degradation, co-treatment with CRBN ligand 8048: 1:1 with 8048, 1-10 μM each; for BRD4 degradation, co-treatment with CRBN ligand 8049: 1:1 with 8049, 1-10 μM each; for BRD4 degradation, BRD ligand alone: BRD monomer alone. Here is the method: All cell lines were purchased from ATCC or DSMZ and grown at 37° C. with 5% CO2. Human HeLa cells were cultured in complete growth medium (Dulbecco's modified Eagle's medium (DMEM) supplemented with 10% FBS); MCF7 cells were cultured in complete growth medium (Dulbecco's modified Eagle's medium (DMEM) supplemented with 10% FBS and 0.01 mg/ml human recombinant insulin (Sigma Aldrich); Namalwa and MOLM-13 cells were cultured in complete growth medium (RPMI 1640 medium supplemented with 10% FBS); MV-4-11 were cultured in complete growth medium (Iscove's Modified Dulbecco's medium, supplemented with 10% FBS); HCT116 cells were cultured in complete growth medium (McCoy's 5a Medium supplemented with 10% FBS). For cellular degradation of BRD4 studies, cells were seeded in a 12-well plate at 70-80% confluency, allowed to attach overnight, and incubated with the indicated compounds for the indicated time. When indicated, a 15-minute pretreatment with 10 μM pomalidomide, 10 μM VHL298, 10 μM Nutlin3a, 1 μM MG-132 or 1 μM Carfilzomib was performed before the addition of CURE-PROs. For washout studies, after CURE-PRO treatment, media was aspirated and incubated with complete medium for the indicated time before lysis.
Anti-BRD4 (13440, 1:1,000 dilution for Western Blot and 1:25 dilution for ProteinSimple); Anti-BRD2 (5848 1:1,000 dilution for Western Blot and 1:25 dilution for ProteinSimple); β-Actin (3700, 1:2,000 dilution for Western Blot), β-Actin (4970, 1:50 dilution for ProteinSimple) anti-mouse IgG-HRP, and anti-rabbit IgG-HRP antibodies were purchased Cell Signaling Technology. Anti-GAPDH (600-401-A33, 1:100 dilution for ProteinSimple) was purchased from Rockland Immunochemicals, Inc. Anti-BRD3 (sc-81202, 1:200 dilution for Western Blot) was purchased from Santa Cruz Biotechnology.
HeLa, MCF7, or HCT116 cells (2.5-3×10^6) were treated for 24 hours with the indicated compounds solubilized in DMSO. The cells were washed in ice-cold PBS and were then lysed in RIPA lysis buffer (150 mM NaCl, 5 mM EDTA, 1% NP-40, 0.5% sodium deoxycholate, 0.1% SDS, 50 mM Tris, pH 8.0.) with Roche protease inhibitor complete cocktail and phosphatase inhibitors (10 mM sodium fluoride, 10 mM sodium pyrophosphate, 1 mM sodium orthovanadate and 20 mM β-glycerophosphate). The total protein concentrations were determined by Bradford Protein Assay and 10-20 μg of protein was loaded onto 4-15% Tris-Glycine gradient gels (Biorad). After standard gel electrophoresis, the separated proteins were transferred to PVDF membrane by wet transfer. The immunoblots were then blocked for 1 hour in 5% skim milk in TBST or 5% BSA in TBST, according to manufacturer's instructions, before an overnight incubation at 4° C. with indicated antibodies and membranes. Membranes were then incubated with the appropriate horseradish peroxidase-conjugated secondary antibodies (1:5,000 dilution) for 1 h at room temperature and the bands were visualized using the Clarity Max Western ECL Substrate (Biorad) and the ChemiDoc Imaging System (Biorad). Signal was detected with ECL Western Blotting Substrate (Pierce) and X-ray film processed with a Konica SRX-101 X-ray film processor or captured by Bio-Rad's Chemidoc Imaging system.
HeLa cells (2.5×106) were treated for 24 hours with the sample compounds solubilized in DMSO. Compounds were added at 1-10 μM each. Standardized protein samples were electrophoresed and imaged as described in the immunoblotting description above. FIGS. 6-18 depicts the CURE-PRO-mediated BRD4 degradation for BRD monomers (JQ1 derivatives comprising of catechol linkers), and CRBN ligands, 8048 and 8049 (pomalidomide derivatives comprising boronic acid linkers) combined in a 1:1 ratio.
HeLa cells (2.5×106) were treated for 24 hours with the compounds solubilized in DMSO. The compounds were added at 10 μM each. Standardized protein samples were electrophoresed and imaged as described in the immunoblotting section above. […]

With `COc1ccc2c(c1)C(c1ccc(Cl)cc1)=N[C@@H](CC(=O)NCCOCCOCCOCCOCCNC(=O)c1ccc(O)c(O)c1)c1nnc(C)n1-2` [BRD-N69], the “Degradation of BRD4 in combination with CRBN ligand [drawing 407]” value (shortened to “Degradation of BRD4 … [drawing 407]”) in test [1] is “✓ (A black check mark indicates efficacy of 30% to 70% or higher protein degradation)”. Besides, in test [2], the “BRD4 degradation, co-treatment with CRBN ligand 8048” value is reported as “causes degradation of BRD4; also recorded: Degradation is noted”; the “BRD4 degradation, co-treatment with CRBN ligand 8049” value is “no evidence of BRD4 degradation”; the “BRD4 degradation, BRD ligand alone” value was “no degradation of BRD4”.

For `CCNC(=O)C[C@@H]1N=C(c2ccc(Cl)cc2)c2cc(OCCOCCOCCOCCOCCOCCNC(=O)c3ccc(O)c(O)c3)ccc2-n2c(C)nnc21` [BRD-N70, N-(17-(((4S)-6-(4-chlorophenyl)-4-(2-(ethylamino)-2-oxoethyl)-1-methyl-4H-benzo[f][1,2,4]triazolo[4,3-a][1,4]diazepin-8-yl)oxy)-3,6,9,12,15-pentaoxaheptadecyl)-3,4-dihydroxybenzamide], in test [1], the “Degradation of BRD4 … [drawing 407]” value is listed as “✓ (A black check mark indicates efficacy of 30% to 70% or higher protein degradation)”. Moreover, in test [2], the “BRD4 degradation, co-treatment with CRBN ligand 8048” value is “causes degradation of BRD4; also recorded: Degradation is noted” and the “BRD4 degradation, co-treatment with CRBN ligand 8049” value is given as “no evidence of BRD4 degradation”.

`CCNC(=O)C[C@@H]1N=C(c2ccc(Cl)cc2)c2cc(OCCOCCOCCOCCOCCOCCNC(=O)c3cccc(O)c3O)ccc2-n2c(C)nnc21` [BRD-N71, N-(17-(((4S)-6-(4-chlorophenyl)-4-(2-(ethylamino)-2-oxoethyl)-1-methyl-4H-benzo[f][1,2,4]triazolo[4,3-a][1,4]diazepin-8-yl)oxy)-3,6,9,12,15-pentaoxaheptadecyl)-2,3-dihydroxybenzamide]: the “Degradation of BRD4 … [drawing 407]” value in test [1] is given as “✓ (A black check mark indicates efficacy of 30% to 70% or higher protein degradation)”. Moreover, in test [1] (Table 5, aryl-boronic acid-containing MDM2 ligand, second drawing (8312)), the “Degradation of BRD4 in combination with MDM2 ligand [drawing 424]” value is “✓ (A black check mark indicates efficacy of 30% to 70% or higher protein degradation)”. Also, in test [2], the “BRD4 degradation, co-treatment with CRBN ligand 8048” value was “causes degradation of BRD4; also recorded: Some selectivity for BRD-N71 and 8048 is noted”; the “BRD4 degradation, co-treatment with CRBN ligand 8049” value was “no evidence of BRD4 degradation”; the “BRD4 degradation, BRD ligand alone” value is “no degradation of BRD4”.
